Where two headings read alike, the source gives them in different places.
Test system: 280 human cancer cell lines
Experiment: OncoPanel cell proliferation assay (10-day)
Assay type: cell-based
Conditions: Homo sapiens; for GI50: read-out: Cell Count GI50; for IC50: read-out: Cell Count IC50; for EC50: read-out: Cell Count EC50
[1] = C-4-II, C-4 II, Female GU - Cervix
[2] = C-33-A, C-33A, Female GU - Cervix
[3] = CAL-62, CAL-62, Endocrine - Thyroid
[4] = CCF-STTG1, CCF-STTG1, CNS - Glioma
[5] = CGTH-W-1, CGTH-W-1, Endocrine - Thyroid
[6] = CHP-212, CHP-212, CNS - Neuroblastoma
[7] = COLO-320-HSR, Colo 320 HSR, Colon
[8] = COLO-829, COLO 829, Skin (Melanoma)
[9] = COR-L105, COR-L105, Lung - NSCLC
[10] = Ca-Ski, Ca Ski, Female GU - Ovary

## CC(C)=CCC[C@H](C)[C@@H]1CC[C@@H](C)c2c1cc(C)c(O)c2O [Compound 4, 7,8-dihydroxyserrulat-14-ene]
BT-474, BT474, Breast
  GI50: 25 µM
  IC50: 25.7 µM
BT-549, BT-549, Breast
  EC50: 15.3 µM
  GI50: 15.1 µM
  IC50: 15.3 µM
BV-173, BV-173, Leukemia
  EC50: 3.56 µM
  GI50: 3.55 µM
  IC50: 3.56 µM
BXPC-3, BxPC-3, Pancreas
  EC50: 13.4 µM
  GI50: 13.4 µM
  IC50: 13.4 µM
BeWo, Placenta
  EC50: 15.6 µM
  GI50: 15.5 µM
  IC50: 15.6 µM
C32, Skin (Melanoma)
  EC50: 7.84 µM
  GI50: 6.37 µM
  IC50: 7.84 µM
[1]
  EC50: 12.6 µM
  GI50: 12.5 µM
  IC50: 12.6 µM
[2]
  EC50: 9.57 µM
  GI50: 9.42 µM
  IC50: 9.57 µM
CA46, CA46, Lymphoma
  EC50: 4.06 µM
  GI50: 4.06 µM
  IC50: 4.06 µM
CAKI-1, Caki-1, Kidney
  EC50: 14.4 µM
  GI50: 14.1 µM
  IC50: 14.4 µM
CAKI-2, Caki-2, Kidney
  EC50: 13.1 µM
  GI50: 13.5 µM
  IC50: 13.6 µM
CAL-27, Cal 27, Head and Neck
  EC50: 12.3 µM
  GI50: 12.2 µM
  IC50: 12.3 µM
[3]
  EC50: 5.36 µM
  GI50: 5.36 µM
  IC50: 5.36 µM
CAMA-1, CAMA-1, Breast
  EC50: > 30 µM
  GI50: > 30 µM
  IC50: > 30 µM
CAPAN-1, Capan-1, Pancreas
  EC50: > 30 µM
  GI50: > 30 µM
  IC50: > 30 µM
[4]
  EC50: 19.7 µM
  GI50: 16 µM
  IC50: 19.7 µM
CCRF-CEM, CCRFCEM, Leukemia
  EC50: 4.92 µM
  GI50: 4.91 µM
  IC50: 4.93 µM
CEM/C1, CEM-C1, Leukemia
  EC50: 1.47 µM
  GI50: 1.47 µM
  IC50: 1.47 µM
CFPAC-1, CFPAC-1, Pancreas
  EC50: 25.2 µM
  GI50: 25.1 µM
  IC50: 25.2 µM
[5]
  EC50: 3.45 µM
  GI50: 3.47 µM
  IC50: 3.48 µM
CHL-1, CHL-1, Skin (Melanoma)
  EC50: 11.9 µM
  GI50: 11.8 µM
  IC50: 11.9 µM
[6]
  EC50: 9.77 µM
  GI50: 9.74 µM
  IC50: 9.78 µM
CML-T1, CML-T1, Leukemia
  EC50: 3.93 µM
  GI50: 3.93 µM
  IC50: 3.93 µM
COLO 201, Colo 201, Colon
  EC50: 4.07 µM
  GI50: 4.04 µM
  IC50: 4.07 µM
COLO 205, Colo 205, Colon
  EC50: 11.9 µM
  GI50: 11.9 µM
  IC50: 11.9 µM
COLO 320DM, Colon
  EC50: 7.91 µM
  GI50: 7.87 µM
  IC50: 7.91 µM
[7]
  EC50: 5.15 µM
  GI50: 5.15 µM
  IC50: 5.16 µM
[8]
  EC50: 3.71 µM
  GI50: 3.29 µM
  IC50: 3.71 µM
COR-L23, COR-L23, Lung - NSCLC
  EC50: 13.3 µM
  GI50: 13.2 µM
  IC50: 13.3 µM
[9]
  EC50: 8.66 µM
  GI50: 8.47 µM
  IC50: 8.66 µM
CRO-AP2, CRO-AP2, Lymphoma
  EC50: 9.94 µM
  GI50: 9.88 µM
  IC50: 9.94 µM
[10]
  EC50: 17.6 µM
  GI50: 17.6 µM
  IC50: 17.6 µM
Calu-1, Calu1, Lung - NSCLC
  EC50: 8.88 µM
  GI50: 8.77 µM
  IC50: 8.88 µM
Calu-6, Calu6, Lung - NSCLC
  EC50: 25 µM
  GI50: 24.5 µM
  IC50: 25 µM

Source: US11331299B2, “Medicinal use of serrulatane diterpenes” (The University of Sydney, priority 2016, dated 2022)
